Assay results published in PubChem BioAssay AID330 (DTP/NCI, 2004).
Toxic doses and inconclusive results are not listed. How the source made its calls: active means survival T/C of 150% or more; inactive means T/C below 125% in these data.

Test system: P388 leukemia ip, CD2F1 mice, survival T/C
Assay: NCI In Vivo Anticancer Drug Screen. Data for tumor model P388 Leukemia (intraperitoneal) in CD2F1 (CDF1) mice
Settings: endpoint: median survival time, higher = longer survival
Method in brief: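 Mice carrying the transplanted tumor received test compound or vehicle. Survival was recorded in each group, and the value is the treated-group measurement divided by that of the vehicle-treated control group.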

[1] = dose: 50.0 mg/kg/injection, schedule: Q01DX005 (ip), vehicle: Klucel (hydroxypropylcellulose) (HPC)
[2] = dose: 60.0 mg/kg/injection, schedule: Q01DX005 (ip), vehicle: saline with Tween-80
[3] = dose: 120.0 mg/kg/injection, schedule: Q01DX005 (ip), vehicle: saline with Tween-80
[4] = dose: 50.0 mg/kg/injection, schedule: Q01DX009 (ip), vehicle: saline with Tween-80
[5] = dose: 100.0 mg/kg/injection, schedule: Q01DX009 (ip), vehicle: saline with Tween-80
[6] = dose: 200.0 mg/kg/injection, schedule: Q01DX009 (ip), vehicle: saline with Tween-80
[7] = dose: 100.0 mg/kg/injection, schedule: Q04DX003 (ip), vehicle: saline with Tween-80
[8] = dose: 200.0 mg/kg/injection, schedule: Q04DX003 (ip), vehicle: saline with Tween-80
[9] = dose: 25.0 mg/kg/injection, schedule: Q01DX009 (ip), vehicle: saline
[10] = dose: 60.0 mg/kg/injection, schedule: Q01DX005 (ip), vehicle: saline
[11] = dose: 120.0 mg/kg/injection, schedule: Q01DX005 (ip), vehicle: saline
[12] = dose: 240.0 mg/kg/injection, schedule: Q01DX005 (ip), vehicle: saline

Measured: T/C

COC(=O)c1n[nH]nc1CC(N)=O
inactive: dose: 50.0 mg/kg/injection, schedule: Q01DX005 (ip), vehicle: saline 105 % of control | dose: 100.0 mg/kg/injection, schedule: Q01DX005 (ip), vehicle: saline 105 % of control | dose: 200.0 mg/kg/injection, schedule: Q01DX005 (ip), vehicle: saline 103 % of control

CC(C)(C)[Si](C)(C)O[C@@H]1C=C(S(=O)(=O)c2ccccc2)[C@H](N2CCSCC2)C1
inactive: dose: 12.5 mg/kg/injection, schedule: Q01DX005 (ip), vehicle: Klucel (hydroxypropylcellulose) (HPC) 101 % of control | dose: 25.0 mg/kg/injection, schedule: Q01DX005 (ip), vehicle: Klucel (hydroxypropylcellulose) (HPC) 97 % of control | [1] 92 % of control

C=C(C)c1nc(N)nc(Nc2ccccc2)n1
inactive: [1] 103 % of control | dose: 100.0 mg/kg/injection, schedule: Q01DX005 (ip), vehicle: Klucel (hydroxypropylcellulose) (HPC) 111 % of control | dose: 200.0 mg/kg/injection, schedule: Q01DX005 (ip), vehicle: Klucel (hydroxypropylcellulose) (HPC) 106 % of control

COC(=O)/C=c1/s/c(=C\C(C)=N)[nH]c1=O
inactive: [2] 90 % of control | [3] 89 % of control

CN(O)C1=c2ccccc2=NC1=O
inactive: [4] 91 % of control | [5] 92 % of control | [6] 114 % of control

C[N+]1(C)[B]C[N+](C)(C)[B-]1
inactive: dose: 50.0 mg/kg/injection, schedule: Q01DX009 (ip), vehicle: Klucel (hydroxypropylcellulose) (HPC) 92 % of control | dose: 100.0 mg/kg/injection, schedule: Q01DX009 (ip), vehicle: Klucel (hydroxypropylcellulose) (HPC) 105 % of control | dose: 200.0 mg/kg/injection, schedule: Q01DX009 (ip), vehicle: Klucel (hydroxypropylcellulose) (HPC) 103 % of control

CC(=O)OCC1OC(n2nc(-c3ccccc3)c(=O)n(-c3ccccc3)c2=O)C(OC(C)=O)C(OC(C)=O)C1OC(C)=O (stereo unspecified)
inactive: [7] 110 % of control | [8] 111 % of control

Cc1ccc2occ(-c3nnc(NC(=O)c4ccccc4)s3)c(=O)c2c1
inactive: [2] 93 % of control | [3] 86 % of control

CSCSCC(CO)NC(=O)/C=C/c1c(C)[nH]c(=O)[nH]c1=O (stereo unspecified)
inactive: dose: 0.08 mg/kg/injection, schedule: Q01DX009 (ip), vehicle: water 105 % of control | dose: 0.15 mg/kg/injection, schedule: Q01DX009 (ip), vehicle: water 107 % of control | dose: 0.3 mg/kg/injection, schedule: Q01DX009 (ip), vehicle: water 102 % of control | dose: 0.6 mg/kg/injection, schedule: Q01DX009 (ip), vehicle: water 101 % of control | dose: 1.2 mg/kg/injection, schedule: Q01DX009 (ip), vehicle: water 109 % of control | dose: 50.0 mg/kg/injection, schedule: Q01DX009 (ip), vehicle: other 87 % of control | dose: 100.0 mg/kg/injection, schedule: Q01DX009 (ip), vehicle: other 98 % of control | dose: 200.0 mg/kg/injection, schedule: Q01DX009 (ip), vehicle: other 89 % of control | dose: 400.0 mg/kg/injection, schedule: Q01DX009 (ip), vehicle: other 86 % of control

O=C(NC1COB(c2ccc(Br)cc2)OC1c1ccc([N+](=O)[O-])cc1)C(Cl)Cl (stereo unspecified)
inactive: dose: 60.0 mg/kg/injection, schedule: Q01DX005 (ip), vehicle: Klucel (hydroxypropylcellulose) (HPC) 102 % of control | dose: 120.0 mg/kg/injection, schedule: Q01DX005 (ip), vehicle: Klucel (hydroxypropylcellulose) (HPC) 102 % of control | dose: 240.0 mg/kg/injection, schedule: Q01DX005 (ip), vehicle: Klucel (hydroxypropylcellulose) (HPC) 103 % of control

COc1cc2c(cc1OC)-c1cc3cc(OC)c(OC)cc3c(C)[n+]1CC2 (tested in a mixture with another compound)
inactive: dose: 1.56 mg/kg/injection, schedule: Q01DX009 (ip), vehicle: water 102 % of control | dose: 3.13 mg/kg/injection, schedule: Q01DX009 (ip), vehicle: water 102 % of control | dose: 6.25 mg/kg/injection, schedule: Q01DX009 (ip), vehicle: water 111 % of control | dose: 12.5 mg/kg/injection, schedule: Q01DX009 (ip), vehicle: water 118 % of control | dose: 14.8 mg/kg/injection, schedule: Q01DX009 (ip), vehicle: water 113 % of control | dose: 22.0 mg/kg/injection, schedule: Q01DX009 (ip), vehicle: water 109 % of control | dose: 33.0 mg/kg/injection, schedule: Q01DX009 (ip), vehicle: water 117 % of control | dose: 50.0 mg/kg/injection, schedule: Q01DX009 (ip), vehicle: water 116 % of control | dose: 75.0 mg/kg/injection, schedule: Q01DX009 (ip), vehicle: water 97 % of control

O=C(O)CC(CC(=O)O)CN(CC(=O)O)Cc1ccccc1
inactive: dose: 20.0 mg/kg/injection, schedule: Q01DX005 (ip), vehicle: Klucel (hydroxypropylcellulose) (HPC) 102 % of control | dose: 40.0 mg/kg/injection, schedule: Q01DX005 (ip), vehicle: Klucel (hydroxypropylcellulose) (HPC) 90 % of control | dose: 80.0 mg/kg/injection, schedule: Q01DX005 (ip), vehicle: Klucel (hydroxypropylcellulose) (HPC) 91 % of control

CCOC(=O)c1ccc2c(c1)CCC2
inactive: dose: 50.0 mg/kg/injection, schedule: Q01DX009 (ip), vehicle: acetone 104 % of control | dose: 100.0 mg/kg/injection, schedule: Q01DX009 (ip), vehicle: acetone 104 % of control

NS(=O)(=O)C1CCCCC1
inactive: dose: 3.13 mg/kg/injection, schedule: Q01DX009 (ip), vehicle: saline 106 % of control | dose: 6.25 mg/kg/injection, schedule: Q01DX009 (ip), vehicle: saline 99 % of control | dose: 12.5 mg/kg/injection, schedule: Q01DX009 (ip), vehicle: saline 106 % of control | [9] 106 % of control

COc1ccc(CCNC(=O)c2c3nc4c(C(=O)NCCc5ccc(OC)cc5)ccc(C)c4oc-3c(C)c(=O)c2N)cc1
inactive: dose: 50.0 mg/kg/injection, schedule: Q04DX003 (ip), vehicle: DMSO 98 % of control | dose: 100.0 mg/kg/injection, schedule: Q04DX003 (ip), vehicle: DMSO 100 % of control | dose: 200.0 mg/kg/injection, schedule: Q04DX003 (ip), vehicle: DMSO 98 % of control

CN1CCN(Cc2oc(CO)cc(=O)c2O)CC1
inactive: [10] 103 % of control | [11] 92 % of control | [12] 104 % of control

CC1(C)N=C(N)N=C(N)N1c1cccc(CC(=O)Nc2ccc(S(=O)(=O)F)cc2)c1
inactive: [8] 122 % of control

NC(CC(=O)O)C(=O)OCc1ccccc1 (stereo unspecified)
inactive: [9] 97 % of control | dose: 50.0 mg/kg/injection, schedule: Q01DX009 (ip), vehicle: saline 100 % of control | dose: 100.0 mg/kg/injection, schedule: Q01DX009 (ip), vehicle: saline 100 % of control | dose: 200.0 mg/kg/injection, schedule: Q01DX009 (ip), vehicle: saline 98 % of control

O=C1Nc2ccccc2C1(O)Cc1ccccn1 (stereo unspecified)
inactive: dose: 25.0 mg/kg/injection, schedule: Q01DX009 (ip), vehicle: saline with Tween-80 105 % of control | [4] 95 % of control | [5] 107 % of control | [6] 103 % of control

Cn1c([N+](=O)[O-])cnc1N1CCN(c2nncs2)C1=O
inactive: [10] 100 % of control | [11] 101 % of control | [12] 100 % of control

O=c1ccnc(Sc2ccc([N+](=O)[O-])cc2[N+](=O)[O-])[nH]1
inactive: [7] 99 % of control | [8] 99 % of control
